In article PMC7129073 (Clinical Microbiology and Infection, 2015):
Values after ≈ are worked out from the molar mass of the structure shown. Read-outs that look alike come from different tables or passages of the source.

What was measured:
[1] = system: viridans group streptococci (VGS); test: MIC; type: cell-based
Shigella spp. = test: Disk diffusion, stool isolates Tehran; type: cell-based; settings: 96 isolates
E. coli [2] = test: Resistance of UTI isolates of renal transplant recipients; type: cell-based, Escherichia coli; settings: 75 isolates
N.gonorrhoeae = test: microbe, parasite or virus in culture; type: cell-based; settings: Neisseria gonorrhoeae
Nocardia spp. = test: E-test on Mueller Hinton agar, 81 clinical isolates; type: cell-based; settings: Nocardia
Acinetobacter = test: Disk diffusion; type: cell-based; settings: 37 isolates selected as resistant to beta-lactams
[3] = system: inducible Enterobacteriaceae; test: SMART 2003, intraabdominal isolates; type: cell-based
Enterobacteriaceae = test: SMART 2003 Europe, microdilution; type: cell-based; settings: 1948 isolates
Klebsiella = test: SMART 2003 Europe, microdilution; type: cell-based, Klebsiella spp.; settings: 341 isolates
S. pneumoniae = test: PROTEKT Italy, NCCLS microdilution; type: cell-based, Streptococcus pneumoniae
Escherichia coli O157:H7 = test: Kirby-Bauer susceptibility; type: cell-based; settings: 30 strains, 1990–2003
[4] = system: Salmonella, other 49 serotypes; test: Disk diffusion, food isolates Spain; type: cell-based; settings: n = 115
K. oxytoca isolate = test: MIC of qnr-positive SHV-12 producer; type: cell-based; settings: Klebsiella oxytoca
[5] = system: Enterobacter cloacae (ECL); test: Broth microdilution; type: cell-based
Escherichia coli (ECO) = test: Broth microdilution; type: cell-based
Proteus mirabilis (PMI) = test: Broth microdilution; type: cell-based
nontyphoidal Salmonella = test: Agar dilution, isolates from chickens 1998–2004; type: cell-based, Salmonella spp.
[6] = system: Klebsiella pneumoniae (KPN)
B. fragilis = test: NCCLS broth microdilution, beta-lactamase positive isolates; type: cell-based, Bacteroides fragilis; settings: 48 hr
B. distasonis = test: as above; type: cell-based, Bacteroides distasonis; settings: 48 hr
B. thetaiotaomicron = test: as above; type: cell-based, Bacteroides thetaiotaomicron; settings: 48 hr
B. ovatus = test: as above; type: cell-based, Bacteroides ovatus; settings: 48 hr
B. vulgatus = test: as above; type: cell-based, Bacteroides vulgatus; settings: 48 hr
Salmonella spp. = test: Agar dilution susceptibility, gastroenteritis isolates Cuba; type: cell-based; settings: 34 strains, 2002
[7] = system: Salmonella serotype Typhimurium; test: Disk diffusion, food isolates Spain; type: cell-based; settings: n = 53
S. pneumoniae (SPN) = test: SENTRY Brazil, NCCLS broth microdilution; type: cell-based, Streptococcus pneumoniae
H. influenzae (HI) = test: SENTRY Brazil, NCCLS broth microdilution; type: cell-based, Haemophilus influenzae
enterococci [8] = test: Disk diffusion and E-test, faecal isolates of cancer patients; type: cell-based, Enterococcus; settings: 38 strains; gentamycin: high level
[9] = system: viridans group streptococci (VgS) and Streptococcus bovis; test: Broth microdilution and disk diffusion; type: cell-based; settings: nine species
Streptococcus pneumoniae = test: BSAC agar dilution, lower respiratory isolates UK and Ireland; type: cell-based
S. pyogenes = test: Broth microdilution; type: cell-based, Streptococcus pyogenes; settings: 212 isolates
enterococci [10] = test: Disk diffusion, urine isolates of BPH patients; settings: strains isolated post-operatively
K. pneumoniae = test: MIC; type: cell-based, Klebsiella pneumoniae; settings: Klebsiella pneumoniae
S. aureus ATCC 29213 = test: Cefoxitin Neo-Sensitabs tablet diffusion, control strain; type: cell-based; settings: Staphylococcus aureus, ATCC29213, read-out: zone diameter
S. aureus ATCC 25923 = test: as above; type: cell-based; settings: Staphylococcus aureus, ATCC25923, read-out: zone diameter
E. coli [11] = test: SMART 2003 Europe, microdilution; type: cell-based, Escherichia coli; settings: 1106 isolates

CO/N=C(\C(=O)N[C@@H]1C(=O)N2C(C(=O)O)=C(CSc3nc(=O)c(=O)[nH]n3C)CS[C@H]12)c1csc(N)n1 [ceftriaxone]
MIC50 [1]: 0.06 µg/mL (≈ 0.108 µM) | MIC90 [1]: 0.5 µg/mL (≈ 0.902 µM) | sensitive (Shigella spp.): 100% | rate of resistance (E. coli [2]): 1% | MIC (N.gonorrhoeae; strain 76mu6): 0.12 µg/mL (≈ 0.216 µM) | MIC (N.gonorrhoeae; strain 92mu6): 0.015 µg/mL (≈ 0.027 µM) | MIC (N.gonorrhoeae; strain 92mu13): 0.008 µg/mL (≈ 0.0144 µM) | MIC50 (Nocardia spp.): 8 µg/mL (≈ 14.4 µM) | MIC90 (Nocardia spp.): > 256 µg/mL | resistant isolates (Acinetobacter): 75.7% | % susceptible ([3]; A/P (N = 200)): 60% | % susceptible ([3]; EU (N = 354)): 79% | % susceptible ([3]; LA (N=113)): 71% | % susceptible ([3]; NA (N = 163)): 75% | per cent susceptible (Enterobacteriaceae): 91% | per cent susceptible (Klebsiella): 89% | susceptible (S. pneumoniae; year 1: 2002): 88.9% | susceptible (S. pneumoniae; year 2: 2003): 93.7%

CCn1cc(C(=O)O)c(=O)c2ccc(C)nc21 [nalidixic acid]
resistant strains (Escherichia coli O157:H7): 10% | resistance rate (NCCLS M100-S13) [4]: 14% | sensitive (Shigella spp.): 96% | MIC (K. oxytoca isolate): 16 µg/mL | resistance [5]; 1984: 2.0% | resistance [5]; 2001: 17.5% | resistance (Escherichia coli (ECO); 1984): 1.6% | resistance (Escherichia coli (ECO); 2001): 19.2% | resistance (Proteus mirabilis (PMI); 1984): 2.6% | resistance (Proteus mirabilis (PMI); 2001): 15.9% | resistance (nontyphoidal Salmonella; Germany (carcass meat)): 9% | resistance [6]; 1984: 12.2% | resistance [6]; 2001: 21.6%

C[C@]1(Cn2ccnn2)[C@H](C(=O)O)N2C(=O)C[C@H]2S1(=O)=O [Tz, Tazobactam]
isolates inhibited at 8 mg/L (B. fragilis): 97% | isolates inhibited at 16 mg/L (B. fragilis): 98% | isolates inhibited at =/< 4 mg/L (B. fragilis): 86% | isolates inhibited at 8 mg/L (B. distasonis): 50% | isolates inhibited at 16 mg/L (B. distasonis): 100% | isolates inhibited at =/< 4 mg/L (B. distasonis): 25% | isolates inhibited at 16 mg/L (B. thetaiotaomicron): 100% | isolates inhibited at =/< 4 mg/L (B. thetaiotaomicron): 42% | isolates inhibited at 8 mg/L (B. ovatus): 56% | isolates inhibited at 16 mg/L (B. ovatus): 86% | isolates inhibited at =/< 4 mg/L (B. ovatus): 23% | isolates inhibited at 8 mg/L (B. vulgatus): 83% | isolates inhibited at 16 mg/L (B. vulgatus): 100% | isolates inhibited at =/< 4 mg/L (B. vulgatus): 50%

CN(C)[C@@H]1C(O)=C(C(N)=O)C(=O)[C@@]2(O)C(O)=C3C(=O)c4c(O)cccc4[C@@](C)(O)[C@H]3C[C@@H]12 [tetracycline]
resistance (Salmonella spp.): 53% | resistance rate (NCCLS M100-S13) [7]: 72% | % S (S. pneumoniae (SPN); 1998): 72% | % S (S. pneumoniae (SPN); 1999): 75% | % S (S. pneumoniae (SPN); 2000): 82% | % S (S. pneumoniae (SPN); 2001): 78% | % S (S. pneumoniae (SPN); 2002): 86% | % S (S. pneumoniae (SPN); 2003): 85% | % S (H. influenzae (HI); 1998): 96% | % S (H. influenzae (HI); 1999): 84% | % S (H. influenzae (HI); 2000): 95% | % S (H. influenzae (HI); 2001): 95% | % S (H. influenzae (HI); 2002): 98% | % S (H. influenzae (HI); 2003): 96% | resistant strains (enterococci [8]): 55% | MIC (N.gonorrhoeae; strain 76mu6): 8 µg/mL (≈ 18 µM) | MIC (N.gonorrhoeae; strain 76mu10): 8 µg/mL (≈ 18 µM) | MIC (N.gonorrhoeae; strain 92mu6): 2 µg/mL (≈ 4.5 µM) | MIC (N.gonorrhoeae; strain 92mu13): 2 µg/mL (≈ 4.5 µM) | resistant isolates (Acinetobacter): 100.0% | % S, range between species [9]: 35.0 – 93.9% | resistance (PEN-NS >0.06, TET-R >1, ERY-R >0.5, CIP-R >2 mg/L) (Streptococcus pneumoniae; Ireland 1999–2000, N 66): 24.2% | resistance (same cut-offs) (Streptococcus pneumoniae; Ireland 2000–2001, N 59): 25.4% | resistance (same cut-offs) (Streptococcus pneumoniae; Ireland 2001–2002, N 68): 16.2% | resistance (same cut-offs) (Streptococcus pneumoniae; Ireland 2002–2003, N 89): 10.1% | resistance (same cut-offs) (Streptococcus pneumoniae; Ireland 2003–2004, N 76): 7.9% | resistance (same cut-offs) (Streptococcus pneumoniae; UK 1999–2000, N 595): 7.2% | resistance (same cut-offs) (Streptococcus pneumoniae; UK 2000–2001, N 608): 6.3% | resistance (same cut-offs) (Streptococcus pneumoniae; UK 2001–2002, N 631): 4.8% | resistance (same cut-offs) (Streptococcus pneumoniae; UK 2002–2003, N 683): 5.7% | resistance (same cut-offs) (Streptococcus pneumoniae; UK 2003–2004, N 709): 6.2% | nonsusceptible (S. pyogenes): 25.9% | resistance (nontyphoidal Salmonella; Belgian collection (caecal samples; Belgium, France, Netherlands)): 33% | resistance (enterococci [10]): 77.8%

CO[C@@]1(NC(=O)Cc2cccs2)C(=O)N2C(C(=O)O)=C(COC(N)=O)CS[C@@H]21 [cefoxitin]
MIC (K. pneumoniae): > 64 µg/mL | zone of inhibition at 10 µg/disc (S. aureus ATCC 29213): 21 to 23 mm | zone of inhibition at 30 µg/disc (S. aureus ATCC 29213): 27 to 29 mm | zone of inhibition at 60 µg/disc (S. aureus ATCC 29213): 29 to 33 mm | zone of inhibition at 10 µg/disc (S. aureus ATCC 25923): 22 to 23 mm | zone of inhibition at 30 µg/disc (S. aureus ATCC 25923): 27 to 29 mm | zone of inhibition at 60 µg/disc (S. aureus ATCC 25923): 32 to 33 mm | % susceptible ([3]; A/P (N = 200)): 27% | % susceptible ([3]; EU (N = 354)): 29% | % susceptible ([3]; LA (N=113)): 30% | % susceptible ([3]; NA (N = 163)): 23% | per cent susceptible (Enterobacteriaceae): 82% | per cent susceptible (E. coli [11]): 94% | per cent susceptible (Klebsiella): 92%
